Laboratory results as given in patent US20140259881A1, “EXTERMINATION TECHNIQUES UTILIZING TERMITE EGG VOLATILE CALLING PHEROMONE AND QUEEN PHEROMONE” (National University Corporation Okayama University, priority 2009, published 2014).
Entries after “also recorded” stand apart in the source; their conditions may differ.

How the values were obtained:
[1] = tested on: Reticulitermes speratus worker termites; experiment: Rate of carrying mimic eggs coated with reference pheromone plus volatile test sample into the egg mass; assay type: in vivo; details: 10% aqueous solution of sample added to lysozyme + β-glucosidase reference pheromone on 0.5 mm glass beads, 25° C., compared to no addition, Tukey-Kramer HSD test
Description: 2.0 mg of white-egg lysozyme and 1.0 mg of β-glucosidase were dissolved in a 50% aqueous solution of glycerol (a mixture of lysozyme and β-glucosidase). To this reference pheromone solution were added a 10% aqueous solution of each of the following volatile ingredient samples to examine the effect of enhancing the activity of carrying mimic eggs. The added samples were: butyl butyrate, 1-butanol, 2-butyl butyrate, 2-butanol, 2-methyl-1-butanol, and n-butyl acetate.
To 100 glass beads having a diameter of 0.5 mm were added 2.0 μL/bead of the above-described reference pheromone solution and 2.0 μL/bead of each of the test sample solutions and mixed well for coating the surface of the beads with each test sample.
At 24 hours after the start of the experiment, the rate of carrying mimic eggs into the egg mass was determined (for each of the test samples, experiments were made on the same procedures). Three repetitions were made for each treatment. Carrying rates were subjected to arcsine-root transformation, followed by statistical comparison by analysis of variance and Tukey-Kramer HSD test. […] FIGS. 6 to 11 show rates of carrying mimic eggs coated with each of the test samples into the egg mass after 24 hours.

[2] = tested on: Reticulitermes speratus worker termites; experiment: as above; assay type: in vivo; details: preliminary experiments
[3] = tested on: Reticulitermes speratus worker termites; experiment: Inhibitory effect on the differentiation into new termite queens by queen volatile pheromone samples; details: volatile from unglazed ball, added every day; 25 days; 25° C.; compared to controls; Tukey-Kramer HSD test
termite = details: patent documents 2 and 3; cited from earlier work

## CCCCO [1-butanol]
[1]
  activity of carrying mimic eggs / egg recognition activity (rate of carrying mimic eggs after 24 hours): remarkable increase in the egg recognition activity; also recorded: significantly enhance the activity of carrying mimic eggs

## CCC(C)O (stereo not drawn) [2-butanol]
[1]
  activity of carrying mimic eggs / egg recognition activity (rate of carrying mimic eggs after 24 hours): remarkable increase in the egg recognition activity; also recorded: significantly enhance the activity of carrying mimic eggs

## CCCC(=O)OC(C)CC (stereo not drawn) [2-butyl butyrate]
[1]
  activity of carrying mimic eggs / egg recognition activity (rate of carrying mimic eggs after 24 hours): no statistical significance, but were observed to have a tendency to enhance the activity of carrying mimic eggs; also recorded: enhance the activity of carrying mimic eggs, as compared to no addition, but there was no difference of statistical significance

## CCC(C)CO (stereo not drawn) [2-methyl-1-butanol]
[1]
  activity of carrying mimic eggs / egg recognition activity (rate of carrying mimic eggs after 24 hours): remarkable increase in the egg recognition activity; also recorded: significantly enhance the activity of carrying mimic eggs

## CCCCOC(=O)CCC [butyl butyrate]
[1]
  activity of carrying mimic eggs / egg recognition activity (rate of carrying mimic eggs after 24 hours): no statistical significance, but were observed to have a tendency to enhance the activity of carrying mimic eggs; also recorded: enhance the activity of carrying mimic eggs, as compared to no addition, but there was no difference of statistical significance

## CCCC(=O)O [butyric acid]
[2]
  effect of increasing the egg-carrying activity: no effect of increasing the egg-carrying activity

## CCCCOC(C)=O [n-butyl acetate, reference compound]
[1]
  activity of carrying mimic eggs / egg recognition activity (rate of carrying mimic eggs after 24 hours): no effect of enhancing the activity of carrying mimic eggs
[3]
  differentiation from worker termite into new termite queens: no effect of inhibiting the differentiation into new termite queens

## lysozyme
termite
  egg-recognition pheromone activity alone: demonstrated to have egg-recognition pheromone activity alone
